Measured values taken from the supplement of paper PMC10307832.

Key:
Test in all cases: relative viability (nuclei count vs DMSO), 5 days (fraction); higher = more cells survive
NCI-H661 = test system: NCI-H661
Procedure, shortened: (§1)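 Each reported value is a median over duplicate plates. It expresses relative viability: treated-well nuclei count divided by vehicle-well nuclei count. Lung cancer cell lines in 1536-well plates were dosed by pin tool a day after seeding, alone with one drug or with a fixed anchor-drug dose plus five library-drug doses (not always all listed) in √10 steps, and nuclei were counted after 5 days.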

NCI-H647 = test system: NCI-H647
Procedure, shortened: as §1

LOU-NH91 = test system: LOU-NH91
Procedure, shortened: as §1

NCI-H2126 = test system: NCI-H2126
Procedure, shortened: as §1

NCI-H2085 = test system: NCI-H2085
Procedure, shortened: as §1

NCI-H1975 = test system: NCI-H1975
Procedure, shortened: as §1

HARA = test system: HARA
Procedure, shortened: as §1

NCI-H1651 = test system: NCI-H1651
Procedure, shortened: as §1

BEN = test system: BEN
Procedure, shortened: as §1

CAL-12T = test system: CAL-12T
Procedure, shortened: as §1

NCI-H1666 = test system: NCI-H1666
Procedure, shortened: as §1

RERF-LC-KJ = test system: RERF-LC-KJ
Procedure, shortened: as §1

LCLC-103H = test system: LCLC-103H
Procedure, shortened: as §1

NCI-H1944 = test system: NCI-H1944
Procedure, shortened: as §1

NCI-H520 = test system: NCI-H520
Procedure, shortened: as §1

NCI-H596 = test system: NCI-H596
Procedure, shortened: as §1

NCI-H1734 = test system: NCI-H1734
Procedure, shortened: as §1

NCI-H460 = test system: NCI-H460
Procedure, shortened: as §1

SW 900 = test system: SW 900
Procedure, shortened: as §1

A-427 = test system: A-427
Procedure, shortened: as §1

NCI-H838 = test system: NCI-H838
Procedure, shortened: as §1

Structure (SMILES): CN1CCN(CCOc2cc(OC3CCOCC3)c3c(Nc4c(Cl)ccc5c4OCO5)ncnc3c2)CC1 [Saracatinib] + Nc1nc2[nH]cc(CCc3ccc(C(=O)N[C@@H](CCC(=O)O)C(=O)O)cc3)c2c(=O)[nH]1 [Pemetrexed] (partner 0.2 µM)
- relative viability (NCI-H661; first compound 0.02 µM): 0.942
- relative viability (NCI-H661; first compound 0.2 µM): 0.84
- relative viability (NCI-H661; first compound 0.6325 µM): 0.846
- relative viability (NCI-H661; first compound 2 µM): 0.699
- relative viability (NCI-H647; first compound 0.02 µM): 0.191
- relative viability (NCI-H647; first compound 0.2 µM): 0.148
- relative viability (NCI-H647; first compound 0.6325 µM): 0.159
- relative viability (NCI-H647; first compound 2 µM): 0.138
- relative viability (LOU-NH91; first compound 0.02 µM): 0.397
- relative viability (LOU-NH91; first compound 0.2 µM): 0.417
- relative viability (LOU-NH91; first compound 0.6325 µM): 0.472
- relative viability (LOU-NH91; first compound 2 µM): 0.457
- relative viability (NCI-H2126; first compound 0.02 µM): 0.772
- relative viability (NCI-H2126; first compound 0.2 µM): 0.664
- relative viability (NCI-H2126; first compound 0.6325 µM): 0.659
- relative viability (NCI-H2126; first compound 2 µM): 0.558
- relative viability (NCI-H2085; first compound 0.02 µM): 0.929
- relative viability (NCI-H2085; first compound 0.2 µM): 0.838
- relative viability (NCI-H2085; first compound 0.6325 µM): 0.85
- relative viability (NCI-H2085; first compound 2 µM): 0.63
- relative viability (NCI-H1975; first compound 0.02 µM): 0.276
- relative viability (NCI-H1975; first compound 0.2 µM): 0.265
- relative viability (NCI-H1975; first compound 0.6325 µM): 0.275
- relative viability (NCI-H1975; first compound 2 µM): 0.253
- relative viability (HARA; first compound 0.02 µM): 0.268
- relative viability (HARA; first compound 0.2 µM): 0.266
- relative viability (HARA; first compound 0.6325 µM): 0.191
- relative viability (HARA; first compound 2 µM): 0.213
- relative viability (NCI-H1651; first compound 0.02 µM): 0.633
- relative viability (NCI-H1651; first compound 0.2 µM): 0.566
- relative viability (NCI-H1651; first compound 0.6325 µM): 0.621
- relative viability (NCI-H1651; first compound 2 µM): 0.581
- relative viability (BEN; first compound 0.02 µM): 0.916
- relative viability (BEN; first compound 0.2 µM): 0.824
- relative viability (BEN; first compound 0.6325 µM): 0.727
- relative viability (BEN; first compound 2 µM): 0.667
- relative viability (CAL-12T; first compound 0.02 µM): 1.27
- relative viability (CAL-12T; first compound 0.2 µM): 1.15
- relative viability (CAL-12T; first compound 0.6325 µM): 1.33
- relative viability (CAL-12T; first compound 2 µM): 1.18
- relative viability (NCI-H1666; first compound 0.02 µM): 0.877
- relative viability (NCI-H1666; first compound 0.2 µM): 0.508
- relative viability (NCI-H1666; first compound 0.6325 µM): 0.878
- relative viability (NCI-H1666; first compound 2 µM): 0.841
- relative viability (RERF-LC-KJ; first compound 0.02 µM): 0.477
- relative viability (RERF-LC-KJ; first compound 0.2 µM): 0.463
- relative viability (RERF-LC-KJ; first compound 0.6325 µM): 0.47
- relative viability (RERF-LC-KJ; first compound 2 µM): 0.441
- relative viability (LCLC-103H; first compound 0.02 µM): 0.444
- relative viability (LCLC-103H; first compound 0.2 µM): 0.329
- relative viability (LCLC-103H; first compound 0.6325 µM): 0.451
- relative viability (LCLC-103H; first compound 2 µM): 0.48
- relative viability (NCI-H1944; first compound 0.02 µM): 0.533
- relative viability (NCI-H1944; first compound 0.2 µM): 0.663
- relative viability (NCI-H1944; first compound 0.6325 µM): 0.626
- relative viability (NCI-H1944; first compound 2 µM): 0.429
- relative viability (NCI-H520; first compound 0.02 µM): 0.625
- relative viability (NCI-H520; first compound 0.2 µM): 0.508
- relative viability (NCI-H520; first compound 0.6325 µM): 0.474
- relative viability (NCI-H520; first compound 2 µM): 0.337
- relative viability (NCI-H596; first compound 0.02 µM): 0.522
- relative viability (NCI-H596; first compound 0.2 µM): 0.49
- relative viability (NCI-H596; first compound 0.6325 µM): 0.471
- relative viability (NCI-H596; first compound 2 µM): 0.479
- relative viability (NCI-H1734; first compound 0.02 µM): 0.418
- relative viability (NCI-H1734; first compound 0.6325 µM): 0.414
- relative viability (NCI-H1734; first compound 2 µM): 0.4
- relative viability (NCI-H460; first compound 0.02 µM): 0.0672
- relative viability (NCI-H460; first compound 0.2 µM): 0.0368
- relative viability (NCI-H460; first compound 0.6325 µM): 0.0538
- relative viability (NCI-H460; first compound 2 µM): 0.0548
- relative viability (SW 900; first compound 0.02 µM): 0.559
- relative viability (SW 900; first compound 0.2 µM): 0.361
- relative viability (SW 900; first compound 0.6325 µM): 0.506
- relative viability (SW 900; first compound 2 µM): 0.408
- relative viability (A-427; first compound 0.02 µM): 0.963
- relative viability (A-427; first compound 0.2 µM): 0.787
- relative viability (A-427; first compound 0.6325 µM): 0.846
- relative viability (A-427; first compound 2 µM): 1.01
- relative viability (NCI-H838; first compound 0.02 µM): 0.254
- relative viability (NCI-H838; first compound 0.2 µM): 0.204
- relative viability (NCI-H838; first compound 0.6325 µM): 0.248
- relative viability (NCI-H838; first compound 2 µM): 0.227
